# From ChEMBL document CHEMBL1201862, “PubChem BioAssay data set” (2004)
# Active and inactive are the calls of the source. Unless noted, the calls are words filed in the database; no cut-off is given here.
# Experiments:
# [1] = biological target: T1, Polyadenylate-binding protein 1 (Homo sapiens, UniProt P11940); experiment: PABP1 MLLE–PAM2 binding inhibitor potency, dose response, biochemical, fluorescence polarization, FITC-PAM2 peptide (AID 602259); format: functional; settings: read-out: IC50_Mean
# [2] = biological target: Intestinal-type alkaline phosphatase (Homo sapiens, UniProt P09923); experiment: inhibition of human intestinal alkaline phosphatase – biochemical, dose response (AID 488876); format: functional
# [3] = biological target: T2, RNA-binding protein pos-1 (Caenorhabditis elegans, UniProt G5EF15); experiment: inhibitors of POS-1/mex-3 RNA binding, dose response, biochemical, fluorescence polarization (AID 1964);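 further: purified POS-1 fused to maltose binding protein made in E. coli; potency of compounds blocking POS-1 binding to fluorescent RNA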
# T2 sequence (G5EF15 whole entry): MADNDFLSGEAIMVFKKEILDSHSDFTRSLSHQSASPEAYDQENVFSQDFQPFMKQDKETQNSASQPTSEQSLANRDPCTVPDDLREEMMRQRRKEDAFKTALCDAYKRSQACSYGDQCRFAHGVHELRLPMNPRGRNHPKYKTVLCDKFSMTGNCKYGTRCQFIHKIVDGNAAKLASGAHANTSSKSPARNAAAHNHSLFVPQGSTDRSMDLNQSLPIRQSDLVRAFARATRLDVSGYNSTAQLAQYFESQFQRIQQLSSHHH
# Aspartyl aminopeptidase = Aspartyl aminopeptidase (Plasmodium falciparum 3D7, UniProt Q8I2J3); experiment: Counterscreen for inhibitors of M1 and M17 aminopeptidases: QFRET-based biochemical high throughput dose response assay for inhibitors of the Plasmodium falciparum M18 Aspartyl Aminopeptidase (PFM18AAP). [Related PubChem assays: 1619 (Screening assay (M17LAP inhibitors).), 1445 (Screening assay (M1AAP inhibitors).)]
# Aminopeptidase N = biological target: T3, Aminopeptidase N (Plasmodium falciparum FcB1/Columbia, UniProt O96935); experiment: P. falciparum M1AAP inhibitors, biochemical, fluorogenic H-Leu-NHMec substrate, 1536-well (AID 1445); design: species or system Plasmodium falciparum 3D7, 3D7
# T3 sequence (O96935 whole entry): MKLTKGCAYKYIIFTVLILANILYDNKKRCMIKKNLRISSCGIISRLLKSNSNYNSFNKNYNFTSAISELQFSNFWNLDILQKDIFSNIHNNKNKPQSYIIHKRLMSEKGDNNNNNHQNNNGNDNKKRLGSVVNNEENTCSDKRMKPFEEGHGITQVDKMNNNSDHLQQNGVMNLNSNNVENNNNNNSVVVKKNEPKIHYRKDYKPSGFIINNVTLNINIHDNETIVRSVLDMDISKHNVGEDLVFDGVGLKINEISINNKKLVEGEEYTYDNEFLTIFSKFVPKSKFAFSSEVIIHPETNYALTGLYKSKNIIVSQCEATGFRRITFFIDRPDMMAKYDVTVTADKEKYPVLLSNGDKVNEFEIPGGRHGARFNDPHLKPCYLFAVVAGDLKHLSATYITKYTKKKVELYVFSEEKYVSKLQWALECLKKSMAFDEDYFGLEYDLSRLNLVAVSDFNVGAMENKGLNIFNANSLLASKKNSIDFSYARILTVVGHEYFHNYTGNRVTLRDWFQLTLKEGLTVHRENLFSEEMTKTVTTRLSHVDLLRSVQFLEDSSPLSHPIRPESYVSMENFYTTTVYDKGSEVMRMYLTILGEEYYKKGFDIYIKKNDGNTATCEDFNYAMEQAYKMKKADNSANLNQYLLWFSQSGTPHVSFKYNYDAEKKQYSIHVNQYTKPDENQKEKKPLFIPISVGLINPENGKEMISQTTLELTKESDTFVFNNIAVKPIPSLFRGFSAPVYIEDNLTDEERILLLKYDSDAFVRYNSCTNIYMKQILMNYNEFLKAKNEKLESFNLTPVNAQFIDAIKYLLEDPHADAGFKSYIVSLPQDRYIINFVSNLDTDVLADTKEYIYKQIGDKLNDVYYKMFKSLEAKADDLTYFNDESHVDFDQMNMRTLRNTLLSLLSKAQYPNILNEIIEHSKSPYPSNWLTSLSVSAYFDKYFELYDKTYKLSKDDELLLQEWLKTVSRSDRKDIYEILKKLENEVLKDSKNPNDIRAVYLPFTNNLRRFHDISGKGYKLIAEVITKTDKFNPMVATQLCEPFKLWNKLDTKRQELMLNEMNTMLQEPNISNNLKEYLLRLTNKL
# Procathepsin L = Procathepsin L (Homo sapiens, UniProt P07711); experiment: cathepsin L inhibitors, dose response, counter-screen for M1/M17 aminopeptidase inhibitor project, biochemical, QFRET, 1536-well (AID 2214)
# [4] = biological target: T4, Zinc finger protein mex-5 (Caenorhabditis elegans, UniProt Q9XUB2); experiment: MEX-5/TCR-2 RNA interaction inhibitors, dose response, biochemical, C. elegans, fluorescence polarization (AID 1960)
# T4 sequence (Q9XUB2 whole entry): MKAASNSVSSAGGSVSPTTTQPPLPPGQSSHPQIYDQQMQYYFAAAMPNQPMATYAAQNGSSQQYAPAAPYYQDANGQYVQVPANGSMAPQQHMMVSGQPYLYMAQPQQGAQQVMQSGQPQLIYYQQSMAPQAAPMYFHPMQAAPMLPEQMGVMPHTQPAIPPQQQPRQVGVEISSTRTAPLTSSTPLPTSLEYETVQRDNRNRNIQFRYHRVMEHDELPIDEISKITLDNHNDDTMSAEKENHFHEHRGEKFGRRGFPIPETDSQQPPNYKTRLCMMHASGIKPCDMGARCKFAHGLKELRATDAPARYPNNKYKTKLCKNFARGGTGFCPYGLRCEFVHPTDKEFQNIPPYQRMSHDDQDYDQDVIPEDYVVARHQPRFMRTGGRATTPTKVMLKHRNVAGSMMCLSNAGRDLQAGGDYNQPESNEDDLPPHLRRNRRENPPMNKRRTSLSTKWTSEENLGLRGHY
# [5] = biological target: T5, Alkaline phosphatase, tissue-nonspecific isozyme (Homo sapiens, UniProt P05186); experiment: TNAP enzyme inhibition by screening hits, dose response, selectivity assay for mouse IAP inhibitor project, biochemical, human TNAP, uHTS hits (AID 488906); format: functional
# T5 sequence (P05186 whole entry): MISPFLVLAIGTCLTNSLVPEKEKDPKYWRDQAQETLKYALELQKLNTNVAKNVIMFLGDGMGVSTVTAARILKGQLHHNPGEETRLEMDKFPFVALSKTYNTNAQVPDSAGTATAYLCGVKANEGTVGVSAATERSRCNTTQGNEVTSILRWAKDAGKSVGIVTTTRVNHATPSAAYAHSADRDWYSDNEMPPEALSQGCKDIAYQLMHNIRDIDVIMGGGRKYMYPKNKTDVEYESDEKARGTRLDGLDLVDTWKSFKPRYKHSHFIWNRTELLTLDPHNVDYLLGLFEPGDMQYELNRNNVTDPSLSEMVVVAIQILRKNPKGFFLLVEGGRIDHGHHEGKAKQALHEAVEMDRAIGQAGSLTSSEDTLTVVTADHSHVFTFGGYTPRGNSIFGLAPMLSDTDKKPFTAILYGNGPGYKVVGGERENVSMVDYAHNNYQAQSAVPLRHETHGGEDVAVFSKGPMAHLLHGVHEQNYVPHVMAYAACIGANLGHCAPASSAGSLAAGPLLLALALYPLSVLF
# [6] = biological target: T1, Polyadenylate-binding protein 1; experiment: PABP1 MLLE–PAM2 interaction inhibitors, dose response, miRNA deadenylation inhibitor project, biochemical, fluorescence polarization, Cy5-PAM2 peptide, secondary (AID 602260); format: functional; settings: read-out: IC50_Mean
# [7] = biological target: Intestinal-type alkaline phosphatase (Mus musculus, UniProt P24822); experiment: PubChem AID 488785; format: functional
# [8] = biological target: T6, Delta-type opioid receptor (Homo sapiens, UniProt P41143); experiment: SAR Analysis of Agonists of the DOR Receptor using an Image-Based Assay - Set 2. [Related pubchem assays (depositor defined):AID1777, AID1785, AID1786, AID1966, AID2133, AID2136, AID2284, AID2285, AID2370]; format: functional
# [9] = biological target: T7, Kappa-type opioid receptor (Homo sapiens, UniProt P41145); experiment: SAR analysis of Agonists of the Kappa Opioid Receptor (KOR) using an Image-Based Assay - Set 2. [Related pubchem assays (depositor defined):AID1777, AID1786, AID1966, AID2133, AID2136, AID2284, AID2285, AID2359]; format: functional
# Mu-type opioid receptor [10] = biological target: T8, Mu-type opioid receptor (Homo sapiens, UniProt P35372); experiment: SAR Analysis of Antagonists of the MOR Receptor using an Image-Based Assay - Set 2. [Related pubchem assays (depositor defined):AID1777, AID1785, AID1786, AID1966, AID2133, AID2136, AID2284, AID2285, AID2420]; format: functional
# [11] = biological target: T6, Delta-type opioid receptor; experiment: SAR Analysis of Antagonists of the DOR Receptor using an Image-Based Assay - Set 2. [Related pubchem assays (depositor defined):AID1777, AID1785, AID1786, AID1966, AID2133, AID2136, AID2284, AID2285, AID2357]; format: functional
# [12] = biological target: T7, Kappa-type opioid receptor; experiment: SAR analysis of small molecule agonists of the kappa opioid receptor via a luminescent beta-arrestin assay - Set 2. [Related pubchem assays (depositor defined):AID1777, AID1785, AID1786, AID1966, AID2133, AID2136, AID2284, AID449737]; format: functional
# [13] = biological target: T7, Kappa-type opioid receptor; experiment: SAR analysis of Antagonists of the Kappa Opioid Receptor (KOR) using an Image-Based Assay - Set 2. [Related pubchem assays (depositor defined):AID1777, AID1785, AID1786, AID1966, AID2133, AID2136, AID2284, AID2285, AID2348]; format: functional
# Mu-type opioid receptor [14] = biological target: T8, Mu-type opioid receptor; experiment: SAR Analysis of Agonists of the MOR Receptor using an Image-Based Assay - Set 2. [Related pubchem assays (depositor defined):AID1777, AID1785, AID1786, AID1966, AID2133, AID2136, AID2284, AID2285, AID2352]; format: functional
# T7 sequence (P41145 whole entry): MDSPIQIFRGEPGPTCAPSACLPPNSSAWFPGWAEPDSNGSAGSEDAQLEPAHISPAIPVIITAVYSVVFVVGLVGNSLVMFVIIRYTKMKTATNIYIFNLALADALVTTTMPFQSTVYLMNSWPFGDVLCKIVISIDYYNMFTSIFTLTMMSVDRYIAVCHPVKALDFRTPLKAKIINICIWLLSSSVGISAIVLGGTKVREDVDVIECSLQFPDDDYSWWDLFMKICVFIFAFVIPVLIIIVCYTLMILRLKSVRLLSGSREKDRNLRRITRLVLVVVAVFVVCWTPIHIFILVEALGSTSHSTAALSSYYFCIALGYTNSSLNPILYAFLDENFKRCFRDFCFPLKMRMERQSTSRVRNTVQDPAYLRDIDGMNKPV
# T6 sequence (P41143 whole entry): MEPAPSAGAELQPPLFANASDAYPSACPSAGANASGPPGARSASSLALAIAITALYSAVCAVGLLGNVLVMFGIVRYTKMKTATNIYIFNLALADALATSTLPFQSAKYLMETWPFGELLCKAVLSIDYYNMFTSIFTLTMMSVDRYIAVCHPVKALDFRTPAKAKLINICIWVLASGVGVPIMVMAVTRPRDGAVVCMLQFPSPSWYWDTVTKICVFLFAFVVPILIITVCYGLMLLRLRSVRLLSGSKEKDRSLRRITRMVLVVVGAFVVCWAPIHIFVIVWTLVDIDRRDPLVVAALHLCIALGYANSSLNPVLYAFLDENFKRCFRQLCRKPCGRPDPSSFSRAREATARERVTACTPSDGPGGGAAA
# T8 sequence (P35372 whole entry): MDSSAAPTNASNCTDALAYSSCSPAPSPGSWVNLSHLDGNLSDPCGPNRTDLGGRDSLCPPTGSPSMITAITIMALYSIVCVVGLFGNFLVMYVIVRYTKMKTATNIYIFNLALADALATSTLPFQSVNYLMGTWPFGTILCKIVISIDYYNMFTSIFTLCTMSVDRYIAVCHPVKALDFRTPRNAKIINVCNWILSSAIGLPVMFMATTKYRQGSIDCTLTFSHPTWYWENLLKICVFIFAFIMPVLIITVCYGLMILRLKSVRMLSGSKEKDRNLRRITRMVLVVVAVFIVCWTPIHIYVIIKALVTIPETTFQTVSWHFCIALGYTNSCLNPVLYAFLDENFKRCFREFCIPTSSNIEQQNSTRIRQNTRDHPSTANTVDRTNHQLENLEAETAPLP
# T1 sequence (P11940 whole entry): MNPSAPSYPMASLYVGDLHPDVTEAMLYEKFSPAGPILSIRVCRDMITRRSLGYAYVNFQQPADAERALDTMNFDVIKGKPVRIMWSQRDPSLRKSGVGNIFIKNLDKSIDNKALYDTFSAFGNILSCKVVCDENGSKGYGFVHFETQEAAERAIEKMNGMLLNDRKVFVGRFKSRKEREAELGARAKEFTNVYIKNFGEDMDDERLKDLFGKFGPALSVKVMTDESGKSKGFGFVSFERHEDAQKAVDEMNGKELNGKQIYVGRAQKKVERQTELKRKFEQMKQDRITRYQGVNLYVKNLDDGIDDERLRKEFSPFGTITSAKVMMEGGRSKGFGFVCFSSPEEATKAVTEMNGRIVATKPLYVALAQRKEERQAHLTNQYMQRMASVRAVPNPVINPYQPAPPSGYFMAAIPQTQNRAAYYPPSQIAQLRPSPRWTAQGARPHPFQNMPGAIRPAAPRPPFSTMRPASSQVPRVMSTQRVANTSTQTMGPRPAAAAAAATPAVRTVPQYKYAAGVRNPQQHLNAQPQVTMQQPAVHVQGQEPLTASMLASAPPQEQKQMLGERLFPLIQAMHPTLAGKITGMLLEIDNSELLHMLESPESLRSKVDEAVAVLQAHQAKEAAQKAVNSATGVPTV
# Sequence of Procathepsin L (P07711 whole entry): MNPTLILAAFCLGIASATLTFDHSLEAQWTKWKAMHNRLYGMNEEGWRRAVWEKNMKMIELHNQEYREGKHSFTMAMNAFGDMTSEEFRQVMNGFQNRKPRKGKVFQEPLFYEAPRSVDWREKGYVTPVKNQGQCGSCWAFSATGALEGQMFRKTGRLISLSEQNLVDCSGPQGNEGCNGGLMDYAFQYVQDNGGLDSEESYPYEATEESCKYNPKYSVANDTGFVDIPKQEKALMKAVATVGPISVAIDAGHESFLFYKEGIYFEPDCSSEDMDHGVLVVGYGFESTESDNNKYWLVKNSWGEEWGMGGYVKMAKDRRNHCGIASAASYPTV
# Sequence of Intestinal-type alkaline phosphatase (Homo sapiens, UniProt P09923) (P09923 whole entry, the tested form may be a part): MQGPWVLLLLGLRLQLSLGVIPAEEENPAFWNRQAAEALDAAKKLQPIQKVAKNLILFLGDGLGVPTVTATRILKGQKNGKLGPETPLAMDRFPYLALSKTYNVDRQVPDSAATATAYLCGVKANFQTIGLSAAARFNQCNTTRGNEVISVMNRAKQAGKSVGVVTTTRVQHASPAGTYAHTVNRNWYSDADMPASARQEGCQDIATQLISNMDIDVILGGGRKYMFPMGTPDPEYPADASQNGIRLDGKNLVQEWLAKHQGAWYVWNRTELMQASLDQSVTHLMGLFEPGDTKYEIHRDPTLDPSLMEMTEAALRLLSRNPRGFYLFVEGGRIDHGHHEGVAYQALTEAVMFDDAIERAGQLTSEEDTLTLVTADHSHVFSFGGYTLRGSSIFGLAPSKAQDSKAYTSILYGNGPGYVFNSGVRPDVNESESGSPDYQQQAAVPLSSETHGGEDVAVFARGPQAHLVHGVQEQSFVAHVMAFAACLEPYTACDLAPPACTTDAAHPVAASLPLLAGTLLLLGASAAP
# Sequence of Intestinal-type alkaline phosphatase (Mus musculus, UniProt P24822) (P24822 whole entry): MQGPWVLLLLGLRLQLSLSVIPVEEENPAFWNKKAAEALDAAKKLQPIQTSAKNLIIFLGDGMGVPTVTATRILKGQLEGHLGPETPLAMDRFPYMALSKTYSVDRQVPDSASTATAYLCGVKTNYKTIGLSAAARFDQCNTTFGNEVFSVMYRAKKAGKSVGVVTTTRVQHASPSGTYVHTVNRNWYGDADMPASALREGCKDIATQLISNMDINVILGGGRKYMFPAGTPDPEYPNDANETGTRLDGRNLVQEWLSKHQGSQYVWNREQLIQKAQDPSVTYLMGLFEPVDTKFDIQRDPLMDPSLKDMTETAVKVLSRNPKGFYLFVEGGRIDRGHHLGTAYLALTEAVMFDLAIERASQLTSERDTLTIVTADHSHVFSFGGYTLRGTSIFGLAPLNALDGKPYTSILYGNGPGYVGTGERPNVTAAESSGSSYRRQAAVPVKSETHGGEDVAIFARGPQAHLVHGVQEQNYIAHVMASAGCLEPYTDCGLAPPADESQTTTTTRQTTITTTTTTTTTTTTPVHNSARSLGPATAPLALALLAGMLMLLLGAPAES
# Sequence of Aspartyl aminopeptidase (Q8I2J3 whole entry): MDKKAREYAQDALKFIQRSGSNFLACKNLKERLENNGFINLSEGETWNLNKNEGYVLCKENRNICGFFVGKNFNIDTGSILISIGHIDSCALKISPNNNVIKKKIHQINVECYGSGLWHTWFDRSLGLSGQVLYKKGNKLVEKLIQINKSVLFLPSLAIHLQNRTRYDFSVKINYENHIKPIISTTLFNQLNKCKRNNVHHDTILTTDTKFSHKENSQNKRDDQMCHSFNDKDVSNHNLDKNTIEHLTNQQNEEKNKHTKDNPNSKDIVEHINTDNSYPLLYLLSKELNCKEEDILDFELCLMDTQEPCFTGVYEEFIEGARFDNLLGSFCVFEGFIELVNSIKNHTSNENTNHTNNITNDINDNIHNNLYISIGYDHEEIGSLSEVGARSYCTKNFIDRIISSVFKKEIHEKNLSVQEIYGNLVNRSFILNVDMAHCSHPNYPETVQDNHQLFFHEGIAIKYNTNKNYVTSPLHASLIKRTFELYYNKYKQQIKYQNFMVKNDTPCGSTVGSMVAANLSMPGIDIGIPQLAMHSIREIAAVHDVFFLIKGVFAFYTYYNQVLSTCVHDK
IC50 [1],IC50 [2],EC50 [3],IC50 (Aspartyl aminopeptidase),IC50 (Aminopeptidase N),IC50 (Procathepsin L),EC50 [4],IC50 [5],IC50 [6],IC50 [7],EC50 [8],EC50 [9],IC50 (Mu-type opioid receptor [10]),IC50 [11],EC50 [12],IC50 [13],EC50 (Mu-type opioid receptor [14]),Compound
> 66 µM (inactive),> 100 µM (inactive),7.47 µM (active),25 µM (not active),9.43 µM (active),> 59.6 µM (not active),5.31 µM (active),> 100 µM (inactive),> 66 µM (inactive),53.5 µM (active),,,,,,,,CCN1C(=O)/C(=C2\SC(=S)N(NC(=O)c3ccccc3O)C2=O)c2ccccc21
,,,,,,,,,,> 32 µM (inactive),> 32 µM (inactive),> 32 µM (inactive),> 32 µM (inactive),17.9 µM (inactive),> 32 µM (inactive),> 32 µM (inactive),c1ccc(CSc2nnc(-c3ccccn3)n2Cc2ccco2)cc1
